target: TAAR1 (Mus musculus, UniProt Q923Y8); test: TAAR1 radioligand binding, membranes of stably transfected HEK293 cells (mouse); conditions: not given
Protocol: For the construction of expression plasmids the coding sequences of human, rat and mouse TAAR 1 were amplified from genomic DNA essentially as described by Lindemann et al.. The Expand High Fidelity PCR System (Roche Diagnostics) was used with 1.5 mM Mg^2+ and purified PCR products were cloned into pCR2.1-TOPO cloning vector (Invitrogen) following the instructions of the manufacturer. PCR products were subcloned into the pIRESneo2 vector (BD Clontech, Palo Alto, Calif.), and expression vectors were sequence verified before introduction in cell lines.
HEK293 cells (ATCC #CRL-1573) were cultured essentially as described Lindemann et al. (2005). For the generation of stably transfected cell lines HEK293 cells were transfected with the pIRESneo2 expression plasmids containing the TAAR coding sequences (described above) with Lipofectamine 2000 (Invitrogen) according to the instructions of the manufacturer, and 24 hrs post transfection the culture medium was supplemented with 1 mg/ml G418 (Sigma, Buchs, Switzerland). After a culture period of about 10 d clones were isolated, expanded and tested for responsiveness to trace amines (all compounds purchased from Sigma) with the cAMP Biotrak Enzyme immunoassay (EIA) System (Amersham) following the non-acetylation EIA procedure provided by the manufacturer.
Cells at confluence were rinsed with ice-cold phosphate buffered saline without Ca^2+ and Mg^2+ containing 10 mM EDTA and pelleted by centrifugation at 1000 rpm for 5 min at 4° C. The pellet was then washed twice with ice-cold phosphate buffered saline and cell pellet was frozen immediately by immersion in liquid nitrogen and stored until use at −80° C. Cell pellet was then suspended in 20 ml HEPES-NaOH (20 mM), pH 7.4 containing 10 mM EDTA, and homogenized with a Polytron (PT 3000, Kinematica) at 10,000 rpm for 10 s. The homogenate was centrifuged at 48,000×g for 30 min at 4° C. and the pellet resuspended in 20 ml HEPES-NaOH (20 mM), pH 7.4 containing 0.1 mM EDTA (buffer A), and homogenized with a Polytron at 10,000 rpm for 10 s. The homogenate was then centrifuged at 48,000×g for 30 min at 4° C. and the pellet resuspended in 20 ml buffer A, and homogenized with a Polytron at 10,000 rpm for 10 s. Protein concentration was determined by the method of Pierce (Rockford, Ill.). The homogenate was then centrifuged at 48,000×g for 10 min at 4° C., resuspended in HEPES-NaOH (20 mM), pH 7.0 including MgCl2 (10 mM) and […] homogenized with a Polytron at 10,000 rpm for 10 s.
Binding assay was performed at 4° C. in a final volume of 1 ml, and with an incubation time of 30 min. […] Non-specific binding was defined as the amount of [^3H]-rac-2-(1,2,3,4-tetrahydro-1-naphthyl)-2-imidazoline bound in the presence of the appropriate unlabelled ligand (10 μM). Competing ligands were tested in a wide range of concentrations (10 pM-30 μM). […] Each experiment was performed in duplicate. All incubations were terminated by rapid filtration through UniFilter-96 plates (Packard Instrument Company) and glass filter GF/C, pre-soaked for at least 2 h in polyethylenimine 0.3%, and using a Filtermate 96 Cell Harvester (Packard Instrument Company). The tubes and filters were then washed 3 times with 1 ml aliquots of cold buffer B. Filters were not dried and soaked in Ultima gold (45 μl/well, Packard Instrument Company) and bound radioactivity was counted by a TopCount Microplate Scintillation Counter (Packard Instrument Company).

How did the Ki turn out when NC1=NC(c2ccc(OC(F)(F)F)cc2)CO1 (racemic) [Example 12, (RS)-4-(4-Trifluoromethoxy-phenyl)-4,5-dihydro-oxazol-2-ylamine] was run?
Its Ki is 0.008 µM.

Which Ki does the source give for NC1=NC(c2cc(Cl)ccc2F)CO1 (racemic) [Example 19, (RS)-4-(5-Chloro-2-fluoro-phenyl)-4,5-dihydro-oxazol-2-ylamine] here?
The Ki was 0.0018 µM.

NC1=NC(c2cc(Cl)c(Cl)cc2C(F)(F)F)CO1 (racemic) [Example 234, (RS)-4-(4,5-Dichloro-2-trifluoromethyl-phenyl)-4,5-dihydro-oxazol-2-ylamine] was tested. Which Ki did it give?
Its Ki is 0.0093 µM.

With NC1=NC(c2ccc(OCc3ccccc3)cc2)CO1 (racemic) [Example 22, (RS)-4-(4-Benzyloxy-phenyl)-4,5-dihydro-oxazol-2-ylamine] as the compound, how does the Ki read?
Its Ki is 0.0011 µM.

NC1=NC(c2cc(F)ccc2F)CO1 (racemic) [Example 16, (RS)-4-(2,5-Difluoro-phenyl)-4,5-dihydro-oxazol-2-ylamine] was tested. Which Ki did it give?
The Ki was 0.0048 µM.

Which Ki does the source give for NC1=NC(c2ccc(F)cc2F)CO1 (racemic) [Example 7, (RS)-4-(2,4-Difluoro-phenyl)-4,5-dihydro-oxazol-2-ylamine] here?
The Ki was 0.0083 µM.

For NC1=NC(c2cc(Cl)ccc2Cl)CO1 (racemic) [Example 260, (RS)-4-(2,5-Dichloro-phenyl)-4,5-dihydro-oxazol-2-ylamine], which Ki is on record?
Its Ki is 0.0013 µM.

For Cc1ccccc1C1COC(N)=N1 (racemic) [Example 8, (RS)-4-o-Tolyl-4,5-dihydro-oxazol-2-ylamine], which Ki is on record?
The Ki was 0.0058 µM.

With NC1=N[C@@H](c2ccc(Cl)c(F)c2)CO1 [Example 174, (S)-4-(4-Chloro-3-fluoro-phenyl)-4,5-dihydro-oxazol-2-ylamine] as the compound, how does the Ki read?
The Ki was 0.0006 µM.

How did the Ki turn out when NC1=NC(c2ccc3c(c2)OCCO3)CO1 (racemic) [Example 32, (RS)-4-(2,3-Dihydro-benzo[1,4]dioxin-6-yl)-4,5-dihydro-oxazol-2-ylamine] was run?
Its Ki is 0.0029 µM.

same assay, conditions: mouse/rat; cell not marked 'rat'; radioligand [3H]-rac-2-(1,2,3,4-tetrahydro-1-naphthyl)-2-imidazoline, 4° C.; read-out: Ki (μM) mouse/rat

For NC1=N[C@@H](Cc2ccccc2Cl)CO1 [Example 60, (S)-4-(2-Chloro-benzyl)-4,5-dihydro-oxazol-2-ylamine], which Ki is on record?
Its Ki is 0.0047 µM.

Which Ki does the source give for NC1=N[C@@H](c2cccc(F)c2F)CO1 [Example 9, (S)-4-(2,3-Difluoro-phenyl)-4,5-dihydro-oxazol-2-ylamine] here?
The Ki was 0.0034 µM.

CC1(c2ccc(F)c(F)c2F)COC(N)=N1 (racemic) [Example 269, (RS)-4-Methyl-4-(2,3,4-trifluoro-phenyl)-4,5-dihydro-oxazol-2-ylamine] was tested. Which Ki did it give?
The Ki was 0.0083 µM.

NC1=N[C@@H](CCc2ccc(F)c(C(F)(F)F)c2)CO1 [Example 133, (S)-4-[2-(4-Fluoro-3-trifluoromethyl-phenyl)-ethyl]-4,5-dihydro-oxazol-2-ylamine] was tested. Which Ki did it give?
The Ki was 0.0022 µM.

For CCC(C[C@H]1COC(N)=N1)c1cccc(Cl)c1F (stereo partly drawn) [Example 355, (S)-4-[2-(3-Chloro-2-fluoro-phenyl)-butyl]-4,5-dihydro-oxazol-2-ylamine], which Ki is on record?
The Ki was 0.0043 µM.

Which Ki does the source give for CCC(C[C@H]1COC(N)=N1)c1ccc(F)c(Cl)c1 (stereo partly drawn) [Example 356, (S)-4-[2-(3-Chloro-4-fluoro-phenyl)-butyl]-4,5-dihydro-oxazol-2-ylamine] here?
The Ki was 0.0043 µM.

With CCC(C[C@H]1COC(N)=N1)c1cc(F)cc(F)c1 (stereo partly drawn) [Example 203, (S)-4-[2-(3,5-Difluoro-phenyl)-butyl]-4,5-dihydro-oxazol-2-ylamine] as the compound, how does the Ki read?
The Ki was 0.0039 µM.

With CC1(c2cc(F)c(F)cc2F)COC(N)=N1 (racemic) [Example 251, (RS)-4-Methyl-4-(2,4,5-trifluoro-phenyl)-4,5-dihydro-oxazol-2-ylamine] as the compound, how does the Ki read?
Its Ki is 0.0086 µM.

NC1=N[C@@H](c2cc(F)cc(F)c2)CO1 [Example 176, (S)-4-(3,5-Difluoro-phenyl)-4,5-dihydro-oxazol-2-ylamine] was tested. Which Ki did it give?
The Ki was 0.002 µM.

CCC(C[C@H]1COC(N)=N1)c1ccc(C(F)(F)F)cc1 (stereo partly drawn) [Example 184, (S)-4-[2-(4-Trifluoromethyl-phenyl)-butyl]-4,5-dihydro-oxazol-2-ylamine] was tested. Which Ki did it give?
Its Ki is 0.0063 µM.

For C[C@]1(c2cc(F)c(F)c(F)c2)COC(N)=N1 [Example 306, (S)-4-Methyl-4-(3,4,5-trifluoro-phenyl)-4,5-dihydro-oxazol-2-ylamine], which Ki is on record?
The Ki was 0.0027 µM.

Which Ki does the source give for C[C@]1(c2cc(F)ccc2F)COC(N)=N1 [Example 187, (S)-4-(2,5-Difluoro-phenyl)-4-methyl-4,5-dihydro-oxazol-2-ylamine] here?
Its Ki is 0.0021 µM.

Which Ki does the source give for C[C@]1(c2cc(F)cc(Cl)c2)COC(N)=N1 [Example 266, (S)-4-(3-Chloro-5-fluoro-phenyl)-4-methyl-4,5-dihydro-oxazol-2-ylamine] here?
The Ki was 0.0016 µM.

COc1ccc([C@H]2COC(N)=N2)c(C(F)(F)F)c1 [Example 240, (+)-(S)-4-(4-Methoxy-2-trifluoromethyl-phenyl)-4,5-dihydro-oxazol-2-ylamine] was tested. Which Ki did it give?
The Ki was 0.0032 µM.

Which Ki does the source give for NC1=N[C@@H](Cc2cccc3ccccc23)CO1 [Example 48, (S)-4-Naphthalen-1-ylmethyl-4,5-dihydro-oxazol-2-ylamine] here?
The Ki was 0.0002 µM.

With NC1=N[C@@H](c2cc(F)ccc2C(F)(F)F)CO1 [Example 259, (+)-(S)-4-(5-Fluoro-2-trifluoromethyl-phenyl)-4,5-dihydro-oxazol-2-ylamine] as the compound, how does the Ki read?
The Ki was 0.0088 µM.

With C[C@@H](C[C@H]1COC(N)=N1)c1ccccc1 [82 (S, S), (S)-4-((S)-2-phenyl-propyl)-4,5-dihydro-oxazol-2-ylamine] as the compound, how does the Ki read?
Its Ki is 0.008 µM.

NC1=N[C@@H](c2ccccc2Br)CO1 [Example 265, (+)-(S)-4-(2-Bromo-phenyl)-4,5-dihydro-oxazol-2-ylamine] was tested. Which Ki did it give?
The Ki was 0.0009 µM.

For NC1=N[C@@H](c2cc(Cl)cc(Cl)c2)CO1 [Example 201, (+)-(S)-4-(3,5-Dichloro-phenyl)-4,5-dihydro-oxazol-2-ylamine], which Ki is on record?
The Ki was 0.0002 µM.

NC1=N[C@@H](c2cccc(Cl)c2)CO1 [Example 192, (+)-(S)-4-(3-Chloro-phenyl)-4,5-dihydro-oxazol-2-ylamine] was tested. Which Ki did it give?
Its Ki is 0.0019 µM.

With NC1=N[C@@H](c2cc(Cl)ccc2Cl)CO1 [Example 298, (+)-(S)-4-(2,5-Dichloro-phenyl)-4,5-dihydro-oxazol-2-ylamine] as the compound, how does the Ki read?
The Ki was 0.0004 µM.

For NC1=N[C@@H](CCc2ccc(Cl)cc2)CO1 [Example 256, (S)-4-[2-(4-Chloro-phenyl)-ethyl]-4,5-dihydro-oxazol-2-ylamine], which Ki is on record?
Its Ki is 0.0006 µM.

How did the Ki turn out when COc1ccc([C@H]2COC(N)=N2)cc1C [Example 129, (S)-4-(4-Methoxy-3-methyl-phenyl)-4,5-dihydro-oxazol-2-ylamine] was run?
The Ki was 0.0029 µM.

For NC1=N[C@@H](c2cc(F)c(F)c(F)c2)CO1 [Example 170, (S)-4-(3,4,5-Trifluoro-phenyl)-4,5-dihydro-oxazol-2-ylamine], which Ki is on record?
The Ki was 0.0011 µM.

Which Ki does the source give for C[C@@]1(c2ccccc2F)COC(N)=N1 [Example 196, (R)-4-(2-Fluoro-phenyl)-4-methyl-4,5-dihydro-oxazol-2-ylamine] here?
The Ki was 0.0066 µM.

With NC1=N[C@@H](c2cccc(Cl)c2F)CO1 [Example 109, (S)-4-(3-Chloro-2-fluoro-phenyl)-4,5-dihydro-oxazol-2-ylamine] as the compound, how does the Ki read?
Its Ki is 0.0014 µM.

Which Ki does the source give for C[C@]1(CCc2ccc(Cl)cc2Cl)COC(N)=N1 [Example 304, (S)-4-[2-(2,4-Dichloro-phenyl)-ethyl]-4-methyl-4,5-dihydro-oxazol-2-ylamine] here?
The Ki was 0.0033 µM.

How did the Ki turn out when NC1=N[C@@H](CCc2cccc(C(F)(F)F)c2Cl)CO1 [Example 151, (S)-4-[2-(2-Chloro-3-trifluoromethyl-phenyl)-ethyl]-4,5-dihydro-oxazol-2-ylamine] was run?
The Ki was 0.001 µM.

CC1(CCc2ccccc2)COC(N)=N1 (racemic) [Example 78, (RS)-4-Methyl-4-phenethyl-4,5-dihydro-oxazol-2-ylamine] was tested. Which Ki did it give?
The Ki was 0.0064 µM.

For NC1=N[C@H](CCc2ccc(Cl)c(Cl)c2)CO1 [Example 124, (R)-4-[2-(3,4-Dichloro-phenyl)-ethyl]-4,5-dihydro-oxazol-2-ylamine], which Ki is on record?
Its Ki is 0.0044 µM.
